4 compounds from the NIST ThermoML archive (doi:10.1021/je060054+) can be followed below.

Numbers after ± are expanded uncertainties.

The nature of this series: refractive index (Na D-line) (dimensionless). The following applies: 298.15 K; 101.33 kPa; Liquid; Standard Abbe refractometry.
As to `CCO` [ethanol], the refractive index was 1.35941 ± 0.00073.
The result for `CCOC(C)=O` [ethyl acetate] reads 1.36978 ± 0.00072.
Next, `CCCCCO` [pentan-1-ol]: 1.4077 ± 0.00073.
Next, `O` [water]: 1.3325 ± 0.00072.

In general, refractive index refers to a measure of how strongly the sample bends light.
